Molecules are shown by their SMILES.

Results on four molecules are retold here after patent US10087171B2, “Crystalline forms of cadazolid” (ACTELION PHARMACEUTICALS LTD, priority 2016, dated 2018).

Common to all, as to format: physicochemical
A short description of data set [1]: Gravimetric water vapor sorption analysis GVS1 at 25° C. The conditions noted are these: for hysteresis in GVS: 0% to 95% r.h. As for the experimental part:
GVS1: Projekt Messtechnik SPS 11-100n water vapor sorption analyzer. The samples are placed in aluminum crucibles on top of a microbalance. They are equilibrated at 25° C. and 50% r.h. and are then subjected to a pre-defined humidity program at 25° C. in the order 50-0-95-50% r.h. A scanning rate of r.h.=5%/h is used and ‘isohumid’ equilibration periods are included at the extreme values.

Data set [2] in a line: Relative thermodynamic stability deduced from melting points and melting enthalpies. The conditions noted are these: at room temperature. As for the experimental part:
DSC data are collected on a Perkin Elmer DSC 7. The instrument is calibrated for energy and temperature using certified indium. Samples are sealed in hermetically closed gold crucibles under N2, heating rates of 10° C./min or 100° C./min, scan from −50° C. to variable end temperatures. Peak temperatures are reported for melting points.
The relative thermodynamic stability of polymorphic forms can be deduced from their melting points and melting enthalpies (L. Yu, Journal of Pharmaceutical Sciences 84 (1995) 966-974). These values are summarized in the Table 6 below for form A and C of cadazolid: […]

Data set [3] is described as follows: Suspension equilibration experiments. The protocol:
27 mg of cadazolid in form A and 25 mg of cadazolid in form C (obtainable as described in Example 3) are suspended in 1 mL H2O, treated for 5 min in an ultrasound bath and agitated at 25° C. The solid is filtered off after 5 days and analyzed. The obtained material is cadazolid in form B.
The following suspension equilibration experiments are performed in organic solvent (mixture of methanol and dichloromethane) and in water:
26 mg of cadazolid in form A and 25 mg of cadazolid in form C are suspended in 1 mL MeOH/CH2Cl21:3 and agitated at 25° C. The solid is filtered off after 5 days and is cadazolid in form A.
27 mg of cadazolid in form A and 26 mg of cadazolid in form C are suspended in 1 mL MeOH/CH2Cl2 1:3 and agitated at 5° C. for 2 days. Some solid is isolated by drying on a filter paper and consists of cadazolid in form A.
29 mg of cadazolid in form A and 26 mg of cadazolid in form C are suspended in 1 mL H2O, treated for 5 min in an ultrasound bath and agitated at 5° C. for 2 days. Some solid is isolated by drying on filter paper and consists of cadazolid in form B.

Data set [4] can be described thus: Gravimetric water vapor sorption analysis GVS2 at 25° C. The text has this:
GVS2: Surface Measurement Systems Ltd. DVS-1 water vapor sorption analyzer. The sample is placed in a Pt pan suspended on a micro balance and is exposed to a N2 flow with 95% r.h. at the beginning and then decreasing with a constant rate of 5%/h.

[5] abbreviates: MeOH/CH2Cl2 1:3, 25° C., 5 days.

For `O=C(O)c1cn(C2CC2)c2cc(N3CCC(O)(COc4ccc(N5C[C@H](CO)OC5=O)cc4F)CC3)c(F)cc2c1=O` [amorphous state, 1-cyclopropyl-6-fluoro-7-{4-[2-fluoro-4-((R)-5-hydroxymethyl-2-oxo-oxazolidin-3-yl)-phenoxymethyl]-4-hydroxy-piperidin-1-yl}-4-oxo-1,4-dihydro-quinoline-3-carboxylic acid], in data set [1], the “solid form after GVS (post GVS XRPD)” value is listed as “amorphous as tested by a post GVS”; the “weight increase between 0% and 95% r.h.” value is on record as “A weight increase of about 7% (circa”; the “weight increase between 0% and 95% r.h. as equivalents H2O” value was 2.3 equivalents H2O) between 0% and; the “hysteresis in GVS” value was 95% r.h. with a significant hysteresis. In addition, in data set [1], the “water content of the solid at 40% r.h.” value stood at 1.8% and the “water content of the solid at 95% r.h.” value turned out to be 7.17%. Further, the hygroscopicity classification result in data set [1] (40% to 95% r.h., adapted methodology, classification according to Pharm. Eur 8.0, section 5.11) is recorded as “considered as being hygroscopic (adapted”.

Take `O=C(O)c1cn(C2CC2)c2cc(N3CCC(O)(COc4ccc(N5C[C@H](CO)OC5=O)cc4F)CC3)c(F)cc2c1=O` [crystalline form A, 1-cyclopropyl-6-fluoro-7-{4-[2-fluoro-4-((R)-5-hydroxymethyl-2-oxo-oxazolidin-3-yl)-phenoxymethyl]-4-hydroxy-piperidin-1-yl}-4-oxo-1,4-dihydro-quinoline-3-carboxylic acid]: in data set [1], the “maximum difference in water content between 0% and 95% r.h.” value is recorded as roughly 0.5 mol/mol; the “hysteresis in GVS” value is “No hysteresis”; the “water content of the solid at 40% r.h.” value is reported as 0.81%; the “water content of the solid at 95% r.h.” value is given as 1.81%. Besides, in data set [2], the “relative thermodynamic stability of polymorphic forms A and C” value is “more thermodynamically stable form”. Further, the “solid form obtained after suspension equilibration of form A and form C together” value (“solid form obtained” below) in data set [3] (H2O, 5° C., 2 days) was “form B”. The “solid form obtained” value in data set [3] (H2O, 25° C., 5 days) is “form B”. For the same molecule, the “solid form obtained” value in data set [3] (MeOH/CH2Cl2 1:3, 5° C., 2 days) is “form A”. Further, the “solid form obtained” value in data set [3] (setting [5]) was “form A”. The “relative thermodynamic stability concluded from suspension equilibration and GVS2 data” value in data set [3] (at 25° C., both at low and high relative humidity) was “thermodynamically more stable than form C”.

On to `O=C(O)c1cn(C2CC2)c2cc(N3CCC(O)(COc4ccc(N5C[C@H](CO)OC5=O)cc4F)CC3)c(F)cc2c1=O` [crystalline form B, 1-cyclopropyl-6-fluoro-7-{4-[2-fluoro-4-((R)-5-hydroxymethyl-2-oxo-oxazolidin-3-yl)-phenoxymethyl]-4-hydroxy-piperidin-1-yl}-4-oxo-1,4-dihydro-quinoline-3-carboxylic acid], for which, in data set [4], the “continuous weight loss during 6 h equilibration at 95% r.h.” value is recorded as 30% during 6 h equilibration at 95% r.h. is. Further, the “r.h. at which the water content of form A is reached” value in data set [4] (decreasing r.h.) is “the r.h. at a rate of 5%/h. At 80% r.h., the water”. In data set [4] (r.h. lowered at a rate of 5%/h), the “additional, accelerated weight loss upon lowering the r.h.” value is given as “loss of approx. 15% is observed upon lowering”.

`O=C(O)c1cn(C2CC2)c2cc(N3CCC(O)(COc4ccc(N5C[C@H](CO)OC5=O)cc4F)CC3)c(F)cc2c1=O` [crystalline form C, 1-cyclopropyl-6-fluoro-7-{4-[2-fluoro-4-((R)-5-hydroxymethyl-2-oxo-oxazolidin-3-yl)-phenoxymethyl]-4-hydroxy-piperidin-1-yl}-4-oxo-1,4-dihydro-quinoline-3-carboxylic acid]: in data set [1], the “water content of the solid at 40% r.h.” value was 0.33%. The “water content of the solid at 95% r.h.” value in data set [1] amounted to 2.52%. Besides, the “solid form obtained” value in data set [3] (H2O, 5° C., 2 days) is reported as “form B”; in data set [3] (H2O, 25° C., 5 days), “form B”; in data set [3] (MeOH/CH2Cl2 1:3, 5° C., 2 days) it was “form A”; in data set [3] (setting [5]) it was “form A”.
